Measured values from patent US12247032B2, “Substituted pyrazolo[1,5-a]pyrimidines as inhibitors of JAK kinases” (Genentech, Inc., priority 2019, dated 2025).
Like-named read-outs stand apart in the source and are kept apart here.

Columns and labels:
[1] = molecular target: T1, recombinant human JAK1 kinase domain protein (Residues 854-1154) (Homo sapiens, UniProt P23458); test: JAK1 biochemical assay (microfluidic mobility shift, peptide phosphorylation); details: 25 μM ATP, 1 nM total JAK1; Ki calculated from Ki app (tight-binding, competitive); read-out: Biochem JAK1 Ki
T1 construct: human JAK1 kinase domain protein (Residues 854-1154); purchased Proteros Biostructures GmbH (Martinsried, Germany); host or cells: insect cells
T1 sequence (P23458 854-1154): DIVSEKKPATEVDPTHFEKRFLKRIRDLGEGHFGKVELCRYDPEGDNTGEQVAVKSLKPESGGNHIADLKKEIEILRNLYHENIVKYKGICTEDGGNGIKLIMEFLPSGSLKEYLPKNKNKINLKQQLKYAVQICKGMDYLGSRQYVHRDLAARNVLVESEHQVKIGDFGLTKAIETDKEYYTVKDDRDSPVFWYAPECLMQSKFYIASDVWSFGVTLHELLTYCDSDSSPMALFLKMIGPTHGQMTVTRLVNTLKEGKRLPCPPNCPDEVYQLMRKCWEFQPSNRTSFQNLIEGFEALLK
Description: (§1) The in vitro biochemical assays quantify JAK-catalyzed phosphorylation of a synthetic peptide, as detected using a LabChip® EZ Reader II microfluidic mobility shift instrument (PerkinElmer; Waltham, MA). The substrate peptide Y-1B has the sequence 5-FAM-VALVDGYFRLTT-NH2. Y-1B is fluorescently labeled on the N-terminus with 5-FAM (5-carboxyfluorescein) and contains a single tyrosine residue (Y) that can be phosphorylated by JAK activity. The substrate peptide stock is prepared in DMSO at 5 mM. Purified recombinant human JAK1 kinase domain protein (Residues 854-1154) was expressed in insect cells and procured from Proteros Biostructures GmbH (Martinsried, Germany). Recombinant human JAK2 kinase domain protein (Residues 812-1132) was expressed in insect cells and purified at Genentech, Inc. (South San Francisco, CA).
(§2) The kinase reaction mixtures contained 100 mM 4-(2-hydroxyethyl)-1-piperazineethanesulfonic acid (HEPES) buffer (pH 7.2), 10 mM magnesium chloride, 0.015% Brij® 35, 4 mM dithiothreitol, 1.5 μM Y-1B peptide substrate, 25 μM adenosine triphosphate (ATP), 1 nM total JAK1 or 0.2 nM total JAK2, and up to 1000 nM test compound in a final concentration of 2% (volume to volume [v/v]) DMSO. In each titration experiment, test compound was tested in duplicate at each of the twelve concentrations. Blank reactions contained ATP, peptide, and DMSO, but no JAK or test compound, whereas uninhibited control reactions contained ATP, peptide, JAK, and DMSO, but no test compound.
(§3) Peptide plus ATP mixture (24 μL) was added to 1 μL of test compound in DMSO (or DMSO alone). The reactions were initiated by adding 25 μL of JAK enzyme to the inhibitor/peptide/ATP mixture before thoroughly mixing the resultant solution. Reactions were incubated at room temperature (22° C.-23° C.) in a final volume of 50 μL per well in 384-well plates. After a 30-minute incubation, the reactions were stopped by adding 25 μL of 150 mM ethylenediaminetetraacetic acid in 100 mM HEPES buffer (pH 7.2) containing 0.015% Brij 35 to each well.
(§4) In each reaction, the residual Y-1B substrate and the phospho-peptide product generated were separated using the EZ Reader 1 instrument. Electrophoretic separation of molecules of product from molecules of substrate was achieved using downstream and upstream voltages of −500 and −2600 V, respectively, at an operating pressure of −1.3 psi. The 5-FAM group present on both the substrate and product peptides was excited at 488 nm, the fluorescence was detected at 530 nm, and the peak heights were reported.
(§5) The extent (or percent) of conversion of substrate to product was calculated from the corresponding peak heights in the electropherogram using HTS Well Analyzer software, Version 5.2 (PerkinElmer), and the following equation (Equation 1): % conversion=[P[…](S+P)]×100 Equation 1 where S and P represent the peak heights of the substrate and product, respectively. After any baseline signal from blank wells containing no JAK was subtracted from the signal of all test wells, the % conversion data were converted to fractional activity as shown in Equation 2, where νi and νo are the % conversion in the presence and absence of test compound, respectively. The % conversion observed in the uninhibited control reactions containing JAK and DMSO vehicle, but no test compound, was defined to have fractional activity=1 (with no inhibitor present, νi=νo), whereas blank wells with no JAK were defined as having fractional activity=0. Fractional activity was plotted against test compound concentration and the data were fitted using XLfit software (IDBS; Guildford, United Kingdom) to a tight-binding apparent inhibition constant (Ki^app) quadratic equation (see Equation 2) (Williams J W, Morrison J F. The kinetics of reversible tight-binding inhibition. Methods Enymol 1979; 63:437-67), which was used to calculate fractional activity and Ki^app […]

[2] = molecular target: T2, Recombinant human JAK2 kinase domain protein (Residues 812-1132) (Homo sapiens, UniProt O60674); test: JAK2 biochemical assay (microfluidic mobility shift, peptide phosphorylation); details: 25 μM ATP, 0.2 nM total JAK2; Ki calculated from Ki app (tight-binding, competitive); read-out: Biochem JAK2 Ki
T2 construct: human JAK2 kinase domain protein (Residues 812-1132); made in house; host or cells: insect cells
T2 sequence (O60674 812-1132): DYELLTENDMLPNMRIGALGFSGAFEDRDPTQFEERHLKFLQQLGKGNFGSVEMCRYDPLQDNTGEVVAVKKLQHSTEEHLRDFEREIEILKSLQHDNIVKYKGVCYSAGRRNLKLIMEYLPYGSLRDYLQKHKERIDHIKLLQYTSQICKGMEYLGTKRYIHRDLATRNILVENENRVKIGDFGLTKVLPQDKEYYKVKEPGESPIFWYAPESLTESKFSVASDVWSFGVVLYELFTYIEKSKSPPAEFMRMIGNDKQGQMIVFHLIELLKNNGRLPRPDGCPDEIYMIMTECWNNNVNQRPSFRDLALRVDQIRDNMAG
Description: as §1, §2, §3, §4, §5

[3] = system: JAK1 (IL-13-stimulated STAT6 phosphorylation in BEAS-2B cells); test: P-STAT6 BEAS-2B+IL-13 cell assay; type: cell-based, human; details: 1 hour compound, IL-13 15 minutes, IC50 by four-parameter fit, read-out: Cellular JAK1 PSTAT6 BEAS2B + IL13
Description: In order to study the effect of JAK1 inhibitors in a cell line that is relevant to the cell biology of human asthma, an IL-13-stimulated STAT6 phosphorylation assay in the human lung bronchial epithelial BEAS-2B cell line was developed.
BEAS-2B cells (ATCC® CRL-9609™) were grown in Bronchial Epithelial Growth Medium (BEGM) (Lonza Catalog No. CC-3170; Walkersville, MD; or PromoCell Catalog No. C-21060; Heidelberg, Germany). Test compound stock solutions (0.5 mM in DMSO) were serially diluted 1:2 in DMSO to generate a 10-point concentration curve (at 500× test concentration), which was further diluted by a 50-fold dilution step in BEGM to generate a 10× concentration curve (in 2% DMSO). Cells were plated at 100,000 cells/well in 200 μL of BEGM in 96-well plates and incubated for 48 hours at 37° C. in a humidified incubator. Medium was aspirated from the cells and replaced with 70 μL of fresh BEGM. Diluted test compound (10 μL; or 2% DMSO in assay medium) was added to the cells, and the plates were incubated for 1 hour at 37° C. in a humidified incubator. Twenty μL of 250 ng/mL human recombinant IL-13 (Bio Techne Catalog No. 213-ILB) was then added to the cells and incubated for 15 minutes at 37° C. Medium was aspirated from the cells and 60 μL of ice-cold 1×cell lysis buffer (Cell Signaling Technologies; Catalog No. 9803S) containing 1 mM PMSF was added to the cells. Assay plates were incubated at −80° C. for at least 1 hour. P-STAT6 was measured by coating GAR plates (MSD; Catalog No. L45RA-1) with rabbit anti-human total STAT6 antibody (Cell Signaling Technologies; Catalog No. 9362S), incubating the cell lysates in the coated plates overnight at 4° C., and then detecting with mouse anti-phospho-STAT6 (Tyr641) Clone 16E12 antibody (Millipore; Catalog No. 05-590, custom labeled by MSD with SULFO-tag) using standard MSD plate processing, washing, and detection protocols. Plates were read on the MESO SECTOR S600.
Data analysis was performed by subtracting negative control values from all wells and determining percent of control using the positive control values; the IC50 was determined with a four-parameter logistic fit model as shown in Equation 4.

Ki [1] [nM] | Ki [2] [nM] | SMILES | IC50 ([3]; Homo sapiens, BEAS-2B, 1 h) [nM] | IC50 [3] [nM]
0.43 | 0.39 | CN(C)CC(F)CN1CC(n2nnc(Cn3cc(NC(=O)c4cnn5cccnc45)c(-c4cc(OC(F)F)ccc4OC(F)F)n3)n2)C1 (single isomer, unassigned) [Example 83, N-[3-[2,5-bis(difluoromethoxy)phenyl]-1-[[2-[1-[3-(dimethylamino)-2-fluoro-propyl]azetidin-3-yl]tetrazol-5-yl]methyl]pyrazol-4-yl]pyrazolo[1,5-a]pyrimidine-3-carboxamide] | 17 | 
0.75 | 0.97 | NC1CCC(n2nnnc2Cn2cc(NC(=O)c3cnn4cccnc34)c(-c3cc(OC(F)F)ccc3OC(F)F)n2)CC1 (stereo not drawn) [Example 69, N-[1-[[1-(4-aminocyclohexyl)tetrazol-5-yl]methyl]-3-[2,5-bis(difluoromethoxy)phenyl]pyrazol-4-yl]pyrazolo[1,5-a]pyrimidine-3-carboxamide] | ≥ 1000 | 
1.1 | 1.1 | CN(C)C1CCC(N2CC(n3nnc(Cn4cc(NC(=O)c5cnn6cccnc56)c(-c5cc(OC(F)F)ccc5OC(F)F)n4)n3)C2)C1 (single isomer, unassigned) [Example 75, N-[3-[2,5-bis(difluoromethoxy)phenyl]-1-[[2-[1-[3-(dimethylamino)cyclopentyl]azetidin-3-yl]tetrazol-5-yl]methyl]pyrazol-4-yl]pyrazolo[1,5-a]pyrimidine-3-carboxamide] |  | 200
0.83 | 0.91 | O=C(Nc1cn(Cc2nnnn2C2CCNCC2)nc1-c1cc(OC(F)F)ccc1OC(F)F)c1cnn2cccnc12 [Example 24, N-[3-[2,5-bis(difluoromethoxy)phenyl]-1-[[1-(4-piperidyl)tetrazol-5-yl]methyl]pyrazol-4-yl]pyrazolo[1,5-a]pyrimidine-3-carboxamide] | 470 | 
0.4 | 0.31 | CN1CCC(n2nnc(Cn3cc(NC(=O)c4cnn5cccnc45)c(-c4cc(OC(F)F)ccc4OC(F)F)n3)n2)C1 (single isomer, unassigned) [Example 30, N-[3-[2,5-bis(difluoromethoxy)phenyl]-1-[[2-(1-methylpyrrolidin-3-yl)tetrazol-5-yl]methyl]pyrazol-4-yl]pyrazolo[1,5-a]pyrimidine-3-carboxamide] |  | 17
0.86 | 0.34 | CN(C)CCn1nnc(Cn2cc(NC(=O)c3cnn4cccnc34)c(-c3cc4c(cc3OC(F)F)NCCO4)n2)n1 [Example 43, N-[3-[6-(difluoromethoxy)-3,4-dihydro-2H-1,4-benzoxazin-7-yl]-1[[2-[2-(dimethylamino)ethyl]tetrazol-5-yl]methyl]pyrazol-4-yl]pyrazolo[1,5-a]pyrimidine-3-carboxamide] | 36 | 
0.37 | 0.18 | CSc1ccc(OC(F)F)c(-c2nn(Cc3nnn(CCN)n3)cc2NC(=O)c2cnn3cccnc23)c1 [Example 35, N-[1-[[2-(2-aminoethyl)tetrazol-5-yl]methyl]-3-[2-(difluoromethoxy)-5-methylsulfanyl-phenyl]pyrazol-4-yl]pyrazolo[1,5-a]pyrimidine-3-carboxamide] | 13 | 
0.87 | 0.55 | CN(C)[C@H]1C[C@H](n2nnc(Cn3cc(NC(=O)c4cnn5cccnc45)c(-c4cc(OC(F)F)ccc4OC(F)F)n3)n2)C1 [Example 64, N-[3-[2,5-bis(difluoromethoxy)phenyl]-1-[[2-[3-(dimethylamino)cyclobutyl]tetrazol-5-yl]methyl]pyrazol-4-yl]pyrazolo[1,5-a]pyrimidine-3-carboxamide; formic acid] | 17 | 
0.71 | 0.47 | CN(C)CCn1nnnc1Cn1cc(NC(=O)c2cnn3cccnc23)c(-c2cc3c(cc2OC(F)F)NCCO3)n1 [Example 44, N-[3-[6-(difluoromethoxy)-3,4-dihydro-2H-1,4-benzoxazin-7-yl]-1-[[1-[2-(dimethylamino)ethyl]tetrazol-5-yl]methyl]pyrazol-4-yl]pyrazolo[1,5-a]pyrimidine-3-carboxamide] | 25 | 
0.49 | 0.4 | CN1CCC[C@H]1CN1CC(n2nnc(Cn3cc(NC(=O)c4cnn5cccnc45)c(-c4cc(OC(F)F)ccc4OC(F)F)n3)n2)C1 (racemic) [Example 46, N-[3-[2,5-bis(difluoromethoxy)phenyl]-1-[[2-[1-[[rac-(2S)-1-methylpyrrolidin-2-yl]methyl]azetidin-3-yl]tetrazol-5-yl]methyl]pyrazol-4-yl]pyrazolo[1,5-a]pyrimidine-3-carboxamide; formic acid] | 18 | 
0.84 | 0.73 | CN1CC(CN2CC(n3nnc(Cn4cc(NC(=O)c5cnn6cccnc56)c(-c5cc(OC(F)F)ccc5OC(F)F)n4)n3)C2)C1 [Example 56, N-[3-[2,5-bis(difluoromethoxy)phenyl]-1-[[2-[1-[(1-methylazetidin-3-yl)methyl]azetidin-3-yl]tetrazol-5-yl]methyl]pyrazol-4-yl]pyrazolo[1,5-a]pyrimidine-3-carboxamide] | 80 | 
